Values of other authors, collected in patent US8916150B2 (priority 2009, dated 2014).

Legend:
[1] = system: botulinum toxin light chain (LC)
[2] = in vivo
LC of BoNT-A = LC of BoNT-A (Clostridium botulinum, UniProt P0DPI1)
LC of BoNT-A, sequence (P0DPI1 2-448 limits assumed): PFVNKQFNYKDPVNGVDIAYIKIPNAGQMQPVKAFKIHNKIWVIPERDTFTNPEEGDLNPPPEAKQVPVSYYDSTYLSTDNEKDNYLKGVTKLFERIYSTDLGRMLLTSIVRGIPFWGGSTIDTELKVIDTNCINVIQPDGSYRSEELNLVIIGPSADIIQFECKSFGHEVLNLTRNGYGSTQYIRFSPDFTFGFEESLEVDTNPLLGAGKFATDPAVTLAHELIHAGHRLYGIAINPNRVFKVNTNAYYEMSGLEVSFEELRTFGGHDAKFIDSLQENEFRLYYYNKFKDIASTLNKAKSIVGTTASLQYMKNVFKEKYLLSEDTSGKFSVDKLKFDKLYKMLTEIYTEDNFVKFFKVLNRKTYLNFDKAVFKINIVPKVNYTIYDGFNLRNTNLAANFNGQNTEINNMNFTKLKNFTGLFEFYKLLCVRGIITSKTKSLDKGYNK

SMILES: O=C(O)CN(CCN(CC(=O)O)CC(=O)O)CC(=O)O [EDTA, ethylenediaminetetraacetate]
- effect on LC enzymatic activity on removal of Zn2+ [1]: completely abolishes enzymatic activity

SMILES: CC(=O)[O-].CC(=O)[O-].[Zn+2] [zinc acetate]
- nausea and vomiting after single dose [2]: induces nausea and vomiting

SMILES: [Cl-].[Cl-].[Zn+2] [zinc chloride]
- effect on autocatalytic fragmentation of LC (LC of BoNT-A): enhanced
